These results are taken from paper PMC2630426 (Journal of medicinal chemistry, 2008).

A word on the Kb: it is the affinity of an antagonist, worked out from how it opposes an agonist. As usually defined, the Ki is the equilibrium dissociation constant of an inhibitor or competing ligand from its target. The IC50 is the concentration at which inhibition is half-maximal.

For experiment [1], the target named is T1, κ opioid receptor (Cavia porcellus, UniProt P41144). Description: GPI assay, κ opioid antagonist potency. It is filed as biochemical, guinea pig.
Experiment [2] deals with T2, δ opioid receptor (Mus musculus, UniProt P32300). As to the kind of experiment: MVD assay, δ opioid antagonist potency. It is filed as biochemical.
In experiment [3] the target is T3, μ opioid receptor (Rattus norvegicus, UniProt P33535). As to the kind of experiment: rat brain membrane binding assay, μ opioid receptor. The following applies: based on the receptor binding constants (Ki values).
Experiment [4] relates to μ opioid receptor. To be noted: GPI, TAPP as μ agonist, cited from earlier work.
Experiment [5] concerns the target T1, κ opioid receptor. To be noted: GPI, U50,488 as κ agonist, cited from earlier work.
The target in experiment [6] is T2, δ opioid receptor. To be noted: cited from earlier work; for Ke^δ: MVD, DPDPE as δ agonist.
For experiment [7], the target named is T3, μ opioid receptor. The following applies: cited from earlier work.
The target in experiment [8] is T1, κ opioid receptor. To be noted: read-out: Ki^κ, opioid receptor binding, cited from earlier work.
Experiment [9] deals with T4, δ opioid receptor (Rattus norvegicus, UniProt P33533). To be noted: ref Schiller et al. 4, cited from earlier work.
In experiment [10] the target is μ opioid receptor. To be noted: cited from earlier work; for Ki: read-out: Ki^μ.
Experiment [11] has as its target T4, δ opioid receptor. To be noted: read-out: Ki^δ; cited from earlier work.
Experiment [12] concerns μ opioid receptor. The following applies: cited from earlier work.
The target in experiment [13] is T4, δ opioid receptor. To be noted: cited from earlier work.
The mark [14] stands for this setting: endomorphin-derived μ antagonists.

Like-named read-outs stand apart in the source and are kept apart here.

T3 sequence (P33535 whole entry): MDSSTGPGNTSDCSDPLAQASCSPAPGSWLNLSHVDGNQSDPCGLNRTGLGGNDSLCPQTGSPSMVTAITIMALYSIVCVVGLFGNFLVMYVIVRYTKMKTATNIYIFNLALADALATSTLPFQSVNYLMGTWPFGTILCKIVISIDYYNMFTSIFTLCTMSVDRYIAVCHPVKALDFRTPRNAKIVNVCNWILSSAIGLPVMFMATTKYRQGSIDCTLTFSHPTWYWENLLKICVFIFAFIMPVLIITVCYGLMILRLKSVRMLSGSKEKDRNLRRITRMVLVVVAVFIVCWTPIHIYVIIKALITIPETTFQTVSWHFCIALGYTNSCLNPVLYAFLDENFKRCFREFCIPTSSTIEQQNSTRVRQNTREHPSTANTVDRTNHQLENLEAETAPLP
T1 sequence (P41144 whole entry): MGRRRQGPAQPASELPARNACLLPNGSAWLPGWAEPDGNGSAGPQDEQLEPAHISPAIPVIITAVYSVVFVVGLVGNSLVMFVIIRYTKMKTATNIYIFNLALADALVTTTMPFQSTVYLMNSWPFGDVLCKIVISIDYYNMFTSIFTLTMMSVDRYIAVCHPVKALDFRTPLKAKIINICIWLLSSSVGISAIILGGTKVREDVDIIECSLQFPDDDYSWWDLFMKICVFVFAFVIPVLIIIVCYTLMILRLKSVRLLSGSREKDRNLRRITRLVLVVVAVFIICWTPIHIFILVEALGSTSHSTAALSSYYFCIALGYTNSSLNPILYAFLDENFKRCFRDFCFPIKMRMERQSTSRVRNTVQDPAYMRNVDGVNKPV
T2 sequence (P32300 whole entry): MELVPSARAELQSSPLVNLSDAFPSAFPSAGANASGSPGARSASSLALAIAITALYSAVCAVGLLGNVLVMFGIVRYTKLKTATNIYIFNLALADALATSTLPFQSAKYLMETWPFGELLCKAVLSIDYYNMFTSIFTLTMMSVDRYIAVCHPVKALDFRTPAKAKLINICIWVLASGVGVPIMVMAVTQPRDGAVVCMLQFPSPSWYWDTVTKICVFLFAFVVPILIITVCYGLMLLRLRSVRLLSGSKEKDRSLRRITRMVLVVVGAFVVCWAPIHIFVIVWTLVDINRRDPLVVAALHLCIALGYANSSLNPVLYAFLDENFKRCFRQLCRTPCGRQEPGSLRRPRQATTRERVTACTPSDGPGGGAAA
T4 sequence (P33533 whole entry): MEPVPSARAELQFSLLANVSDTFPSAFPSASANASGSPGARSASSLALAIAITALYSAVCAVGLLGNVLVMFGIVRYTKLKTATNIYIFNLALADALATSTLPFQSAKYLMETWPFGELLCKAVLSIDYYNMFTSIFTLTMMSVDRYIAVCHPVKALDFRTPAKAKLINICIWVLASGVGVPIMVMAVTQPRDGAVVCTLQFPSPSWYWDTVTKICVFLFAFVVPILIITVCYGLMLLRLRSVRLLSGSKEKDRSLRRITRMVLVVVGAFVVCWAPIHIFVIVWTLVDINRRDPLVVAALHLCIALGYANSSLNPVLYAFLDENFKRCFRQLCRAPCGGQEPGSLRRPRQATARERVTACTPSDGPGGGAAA

Consider `CC[C@H](C)[C@H](NC(=O)[C@H](CCCNC(=N)N)NC(=O)[C@H](CCCNC(=N)N)NC(=O)[C@H](CC(C)C)NC(=O)[C@H](Cc1ccccc1)NC(=O)CNC(=O)CNC(=O)[C@@H](C)Cc1c(C)cc(C(N)=O)cc1C)C(=O)N[C@@H](CCCNC(=N)N)C(=O)N1CCC[C@H]1C(=O)N[C@@H](CCCCN)C(N)=O` [compound 5, [(2S)-Mdcp^1]Dyn A(1-11)-NH2], for which the Kb on κ opioid receptor [1] was 5.96 ± 0.8 nM; at δ opioid receptor [2] it was 843 ± 88 nM. Besides, on μ opioid receptor [3], the “Ki ratio μ/δ/κ” value is listed as 1/1/1.
On to “(2S)-Mdp-c[D-Cys-Gly-Phe(pNO2)-D-Cys]NH2 (disulfide) [compound 2]”, for which the “Ke^μ” value in the experiment on μ opioid receptor [4] (ref Schiller et al. 2) is reported as 1.48 ± 0.18 nM. In addition, on κ opioid receptor [5] (ref Schiller et al. 2), the “Ke^κ” value was 6.41 ± 0.18 nM. On δ opioid receptor [6] (ref Schiller et al. 2), the “Ke^δ” value is on record as 3.48 ± 0.28 nM. The “Ki ratio μ/δ/κ” value at μ opioid receptor [7] (based on Ki values, ref Schiller et al. 2) was 1/2/42. Moreover, the Ki with κ opioid receptor [8] (ref Schiller et al. 2) was 92.8 ± 5.3 nM.
For “(2S)-Mdp-c[D-Pen-Gly-Phe(pF)-Pen]-Phe-OH (disulfide) (YCGFCF) [compound 4]”, the Ki in the experiment with μ opioid receptor [7] (read-out: Ki^μ, opioid receptor binding, ref Schiller et al. 4) is 406 ± 21 nM; with δ opioid receptor [9] (read-out: Ki^δ, opioid receptor binding), 2.32 ± 0.4 nM; in the experiment with κ opioid receptor [8] (ref Schiller et al. 4) it was 3710 ± 400 nM.
Regarding “(2S)-Mdp-c[D-Pen-Gly-Phe(pF)-Pen]-Phe-OH (disulfide) [compound 4]”, the “Ke^μ” value in the experiment on μ opioid receptor [4] (ref Schiller et al. 4) is reported as 668 ± 40 nM. Moreover, the “Ke^κ” value on κ opioid receptor [5] (ref Schiller et al. 4) was 4370 ± 860 nM. Further, at δ opioid receptor [6] (ref Schiller et al. 4), the “Ke^δ” value is 0.785 ± 0.135 nM. Also, the “Ke ratio δ/μ/κ” value at δ opioid receptor [6] (from Ke values of GPI and MVD assays, ref Schiller et al. 4) is listed as 1/851/5570. Further, on δ opioid receptor [9] (based on Ki values), the “Ki ratio δ/μ/κ” value is 1/175/1600.
As to “Dhp-c[N^ε,N^β-carbonyl-D-Lys^2,Dap^5]enkephalinamide”, the Ki on μ opioid receptor [10] is 15.5 nM; with δ opioid receptor [11] it was 273 nM.
As for “H-D-Phe-c[Cys-Tyr-D-Trp-Orn-Thr-Pen]-Thr-NH2 [CTOP]”, the concentration for half-maximal inhibition (IC50) at μ opioid receptor [10] (read-out: IC50^μ, somatostatin-derived μ opioid antagonist) is 2.8 nM.
For the compound H-Dmt-Sar-Phe-D-Nal-NH2, the “Ke^μ” value in the experiment on μ opioid receptor [12] is reported as 2.34 nM. The “Ke^δ” value on δ opioid receptor [13] is 305 nM.
With “[(2S)-Mdp^1]Dyn A(1-11)-NH2 [compound 6]”, the “Ke^μ” value in the experiment on μ opioid receptor [4] (ref Lu et al. 3) is 925 ± 94 nM. The “Ke^κ” value on κ opioid receptor [5] (ref Lu et al. 3) is on record as 3.92 ± 0.65 nM. For the same compound, the “Ke^δ” value on δ opioid receptor [6] (ref Lu et al. 3) is 3320 ± 520 nM.
As to “[Dmt^1,D-2-Nal^4]endomorphin-1 [antanal-1]”, at μ opioid receptor [10] (setting [14]), the Ki is 2.38 nM.
Take “[Dmt^1,D-2-Nal^4]endomorphin-2 [antanal-2]”: the Ki on μ opioid receptor [10] (setting [14]) is 1.52 nM.
